Test results taken from PMC7044277 (Nature Communications, 2020).
Where “and” joins values, the source holds several entries; their conditions need not be identical. Equal values may be shown once.

Legend:
5HT4 = target: T1, 5HT4 (Homo sapiens, UniProt Q13639); test: β-arrestin2 recruitment (Tango); type: cell-based; conditions: Fig_S10n, drug alone
T1 construct: expressed in transfected cells; host or cells: HTLA cells expressing TEV-fused β-arrestin2

5HT2A = 5HT2A (Homo sapiens, UniProt P28223); test: β-arrestin2 recruitment (Tango); type: cell-based; conditions: single replicate values
5HT1E = 5HT1E (Homo sapiens, UniProt P28566); test: β-arrestin2 recruitment (Tango); type: cell-based; conditions: Fig_S10i
5HT1A = target: T2, 5HT1A (Homo sapiens, UniProt P08908); test: β-arrestin2 recruitment (Tango); type: cell-based; conditions: Fig_S10f, single replicates
T2 construct: expressed in transfected cells; host or cells: HTLA cells expressing TEV-fused β-arrestin2
T2 sequence (P08908 1-422): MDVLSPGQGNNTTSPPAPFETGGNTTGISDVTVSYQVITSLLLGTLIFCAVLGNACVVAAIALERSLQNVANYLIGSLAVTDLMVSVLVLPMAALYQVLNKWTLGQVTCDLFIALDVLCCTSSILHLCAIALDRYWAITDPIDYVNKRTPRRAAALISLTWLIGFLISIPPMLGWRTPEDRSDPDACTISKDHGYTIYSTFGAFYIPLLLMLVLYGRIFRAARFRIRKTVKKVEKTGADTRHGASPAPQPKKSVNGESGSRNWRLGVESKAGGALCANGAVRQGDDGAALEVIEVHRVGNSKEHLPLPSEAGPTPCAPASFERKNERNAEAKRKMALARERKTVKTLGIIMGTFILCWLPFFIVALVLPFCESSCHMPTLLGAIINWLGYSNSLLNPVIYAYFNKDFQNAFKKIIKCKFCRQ

[1] = test system: serotonin receptor of Fig_S10h (subtype not given); test: β-arrestin2 recruitment (Tango), agonist activity, source data Fig_S10h; type: cell-based, human; conditions: drug alone

Chain of 5HT2A (P28223 whole entry): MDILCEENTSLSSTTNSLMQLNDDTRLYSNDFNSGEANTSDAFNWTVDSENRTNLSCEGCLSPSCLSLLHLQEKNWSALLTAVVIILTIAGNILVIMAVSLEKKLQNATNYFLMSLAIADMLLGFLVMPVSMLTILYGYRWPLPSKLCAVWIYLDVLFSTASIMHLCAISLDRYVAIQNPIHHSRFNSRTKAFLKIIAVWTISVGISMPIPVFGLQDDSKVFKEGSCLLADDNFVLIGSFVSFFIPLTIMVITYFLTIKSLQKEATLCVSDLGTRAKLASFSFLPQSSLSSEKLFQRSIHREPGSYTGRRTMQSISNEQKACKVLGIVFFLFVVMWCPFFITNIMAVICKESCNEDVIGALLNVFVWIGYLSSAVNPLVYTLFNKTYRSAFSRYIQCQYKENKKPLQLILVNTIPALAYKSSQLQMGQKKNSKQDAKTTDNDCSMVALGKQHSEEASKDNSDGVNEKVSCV
T1 sequence (Q13639 whole entry, the tested form may be a part): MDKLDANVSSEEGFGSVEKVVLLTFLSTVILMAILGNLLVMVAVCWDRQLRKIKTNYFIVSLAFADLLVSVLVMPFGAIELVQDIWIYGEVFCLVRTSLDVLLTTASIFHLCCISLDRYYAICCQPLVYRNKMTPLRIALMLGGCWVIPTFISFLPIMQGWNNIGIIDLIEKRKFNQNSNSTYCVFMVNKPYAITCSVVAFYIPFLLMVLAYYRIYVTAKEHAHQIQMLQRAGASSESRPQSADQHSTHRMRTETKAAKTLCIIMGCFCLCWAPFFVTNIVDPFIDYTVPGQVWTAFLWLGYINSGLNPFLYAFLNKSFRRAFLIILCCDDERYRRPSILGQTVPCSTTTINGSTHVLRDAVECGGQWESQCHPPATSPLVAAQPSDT
Chain of 5HT1E (P28566 whole entry): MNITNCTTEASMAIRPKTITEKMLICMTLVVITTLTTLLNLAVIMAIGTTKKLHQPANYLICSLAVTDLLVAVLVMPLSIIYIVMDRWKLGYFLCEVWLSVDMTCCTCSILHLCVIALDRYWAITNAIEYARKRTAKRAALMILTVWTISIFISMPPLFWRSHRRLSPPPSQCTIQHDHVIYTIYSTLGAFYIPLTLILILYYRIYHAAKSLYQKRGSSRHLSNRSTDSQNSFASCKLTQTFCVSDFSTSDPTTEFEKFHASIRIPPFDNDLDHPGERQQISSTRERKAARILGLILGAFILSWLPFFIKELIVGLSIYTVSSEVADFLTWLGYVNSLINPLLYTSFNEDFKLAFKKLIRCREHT

NCCc1c[nH]c2ccc(O)cc12 [serotonin]
β-arrestin2 recruitment response (dose-response source data, replicate values) (5HT4; Log[Drug] -6.52): 4.364 and 3.213 and 1.27 and 4.689 and 5.849 and 4.639 and 0.7041 and 1.028 and 0.8286 | β-arrestin2 recruitment response (dose-response source data, replicate values) (5HT4; Log[Drug] -7): 0.4502 and 1.04 and 0.7749 and 1.703 and 3.757 and 0.2045 and 0.7898 | β-arrestin2 recruitment response (dose-response source data, replicate values) (5HT4; Log[Drug] -7.52): 0.2639 and 1.123 and 0.6731 and 1.44 and 0.8323 and -0.173 and -0.1455 and 0.1779 | β-arrestin2 recruitment response (dose-response source data, replicate values) (5HT4; Log[Drug] -8): 0.909 and 1.368 and 1.768 and 1.945 and 1.002 and 4.528 and -0.04204 and 0.2773 and -0.04931 | β-arrestin2 recruitment response (dose-response source data, replicate values) (5HT4; Log[Drug] -8.52): 1.014 and 0.4607 and 1.27 and 2.026 and 2.149 and 0.7135 and 0.536 | β-arrestin2 recruitment response (dose-response source data, replicate values) (5HT4; Log[Drug] -9): 4.112 and 0.5135 and 0.7781 and 0.7219 and 2.151 and -0.2021 and -0.04689 and 0.1787 | β-arrestin2 recruitment response (dose-response source data, replicate values) (5HT4; Log[Drug] -9.52): -0.1745 and 0.2987 and 0.5551 and 1.654 and 2.192 and 1.098 and -0.3371 and 0.1099 | β-arrestin2 recruitment response (dose-response source data, replicate values) (5HT4; Log[Drug] -10): 0.07451 and 0.7799 and 1.035 and 0.7688 and 1.653 and 0.865 and -0.1787 and 0.1471 | β-arrestin2 recruitment response (dose-response source data, replicate values) (5HT4; Log[Drug] -10.52): -0.001242 and 0.2372 and 0.7047 and -0.005208 and 0.949 and 0.8156 and -0.3363 and -0.2741 | β-arrestin2 recruitment response (dose-response source data, replicate values) (5HT4; Log[Drug] -11): 0.09934 and 0.2831 and 0.9059 and 0.201 and 0.5729 and -0.1083 and 0.6362 and -0.2773 | β-arrestin2 recruitment response (dose-response source data, replicate values) (5HT4; Log[Drug] -11.52): -0.1788 and 1.011 and 0.1838 and 2.165 and 0.3594 and 0.526 and -0.2336 and -0.308 and 0.3767 | β-arrestin2 recruitment response (dose-response source data, replicate values) (5HT4; Log[Drug] -12): 0.2813 and -0.1521 and 0.7458 and 0.6208 and 0.6615 and -0.1358 and -0.3662 | Fig_S10k dose-response, drug alone (agonist mode), β-arrestin2 recruitment (5HT2A; Log[Drug] -7): 2.15 and 3.679 and 4.811 and -0.4868 and 5.6493 and -0.2054 | Fig_S10k dose-response, drug alone (agonist mode), β-arrestin2 recruitment (5HT2A; Log[Drug] -7.52): -0.7997 and 2.965 and 17.8531 and -0.2054 and -0.763 and 5.3131 and 4.228 and 3.612 and 4.7477 | Fig_S10k dose-response, drug alone (agonist mode), β-arrestin2 recruitment (5HT2A; Log[Drug] -8): -3.989 and -1.195 and 1.849 and -1.365 and -2.184 and 9.999 and -0.5868 and 4.719 | Fig_S10k dose-response, drug alone (agonist mode), β-arrestin2 recruitment (5HT2A; Log[Drug] -8.52): -0.2128 and 3.793 and -1.972 and 2.067 and -0.1908 and -0.1834 and -1.527 and -2.08 and -0.286 and -0.3848 and 2.472 and 0.1395 | Fig_S10k dose-response, drug alone (agonist mode), β-arrestin2 recruitment (5HT2A; Log[Drug] -9): 2.751 and -4.014 and -3.749 and 5.589 and 0.3815 and 2.971 and 0.02275 and 2.73 and 0.208 and 0.558 and 0.5339 | Fig_S10k dose-response, drug alone (agonist mode), β-arrestin2 recruitment (5HT2A; Log[Drug] -9.52): 1.871 and 1.852 and -0.4489 and -0.2054 and 2.157 and -3.113 and 1.313 and -0.39 and 0.00481 and 0.7312 and 5.479 | Fig_S10k dose-response, drug alone (agonist mode), β-arrestin2 recruitment (5HT2A; Log[Drug] -10): 0.9831 and -1.745 and 1.865 and 2.4358 and -0.7924 and 0.9424 and -2.603 and -1.547 and -0.3848 and 0.8707 and 19.7653 | Fig_S10k dose-response, drug alone (agonist mode), β-arrestin2 recruitment (5HT2A; Log[Drug] -10.52): 1.062 and 0.5626 and 5.943 and 0.675 and 1.189 and 0.1462 and -0.6434 and -0.1876 and 0.3223 | Fig_S10k dose-response, drug alone (agonist mode), β-arrestin2 recruitment (5HT2A; Log[Drug] -11): -1.391 and 0.03161 and 5.943 and 0.3155 and -1.667 and -1.459 and -0.8081 | Fig_S10k dose-response, drug alone (agonist mode), β-arrestin2 recruitment (5HT2A; Log[Drug] -11.52): 2.458 and 6.164 and 3.035 and 8.661 and 1.783 and -1.534 and 0.9332 | Fig_S10k dose-response, drug alone (agonist mode), β-arrestin2 recruitment (5HT2A; Log[Drug] -12): 0.4182 and -4.489 and -0.5209 and 0.1755 and -2.72 and 0.5037 and -1.135 and 0.1924 and 0.9524 | β-arrestin2 recruitment response, agonist mode (single replicate values) (5HT1E; Log[Drug] -5.52): 108.092 and 78.7034 and 68.0996 and 111.634 and 84.2736 and 51.0795 and 58.1946 | β-arrestin2 recruitment response, agonist mode (single replicate values) (5HT1E; Log[Drug] -6): 49.7303 and 44.0521 and 69.0964 and 55.0788 and 40.5129 and 63.4469 and 42.3724 and 34.8106 | β-arrestin2 recruitment response, agonist mode (single replicate values) (5HT1E; Log[Drug] -6.52): 106.224 and 69.1939 and 36.3693 and 81.3314 and 34.6361 and 22.755 and 52.7781 and 32.1336 and 42.1707 | β-arrestin2 recruitment response, agonist mode (single replicate values) (5HT1E; Log[Drug] -7): 29.3778 and 17.2077 and 21.8054 and 52.9182 and 14.1436 and 22.9549 and 34.3028 and 15.3331 and 17.5442 | β-arrestin2 recruitment response, agonist mode (single replicate values) (5HT1E; Log[Drug] -7.52): 41.4851 and -6.092 and 11.8176 and 23.4775 and 20.4513 and 6.343 and -1.8765 and -0.1243 and 3.783 | β-arrestin2 recruitment response, agonist mode (single replicate values) (5HT1E; Log[Drug] -8): 21.7287 and -17.9678 and 1.664 and 16.3198 and 16.2023 and 1.767 and -8.704 and -1.0625 and 5.333 | β-arrestin2 recruitment response, agonist mode (single replicate values) (5HT1E; Log[Drug] -8.52): 26.6743 and -0.7908 and -7.94 and 18.4011 and -5.808 and -1.038 and -3.241 and -4.6991 and -0.4891 | β-arrestin2 recruitment response, agonist mode (single replicate values) (5HT1E; Log[Drug] -9): -13.5816 and -3.11 and -9.22 and 15.9426 and -4.472 and -7.47 and -3.2021 and 8.202 and 2.053 | β-arrestin2 recruitment response, agonist mode (single replicate values) (5HT1E; Log[Drug] -9.52): -5.0682 and -13.6215 and 3.951 and -3.374 and 10.856 and -15.4751 and -6.969 and 2.056 and -4.273 | β-arrestin2 recruitment response, agonist mode (single replicate values) (5HT1E; Log[Drug] -10): -0.8245 and 7.169 and 4.501 and 15.8236 and -1.758 and 5.793 and -9.018 and 1.66 | β-arrestin2 recruitment response, agonist mode (single replicate values) (5HT1E; Log[Drug] -10.52): -1.038 and -22.0751 and -13.8927 and 22.1779 and 3.45 and -2.9 and -5.64 and 8.736 | β-arrestin2 recruitment response, agonist mode (single replicate values) (5HT1E; Log[Drug] -11): -16.6513 and -2.431 and 20.3066 and 6.343 and -2.603 and 3.357 | β-arrestin2 recruitment response, agonist mode (normalized) (5HT1A; Log[Drug] -9.52): 0.051 and -0.6094 and 0.4564 and 0.9983 and -0.6725 and -0.3119 and 0.3423 and -0.09315 and -0.541 and 0.6114 | β-arrestin2 recruitment response, agonist mode (normalized) (5HT1A; Log[Drug] -10): -0.5013 and -1.706 and 4.314 and 0.8312 and -0.5054 and -0.4971 and 1.761 and 0.86 and 0.493 and 1.8886 and 0.4834 | β-arrestin2 recruitment response, agonist mode (normalized) (5HT1A; Log[Drug] -10.52): 0.008354 and -1.487 and -0.1989 and 2.088 and -0.6683 and 3.151 and -0.06065 and -0.5318 and -0.2913 | β-arrestin2 recruitment response, agonist mode (normalized) (5HT1A; Log[Drug] -11): -0.8312 and 0.8491 and 0.1249 and -0.3544 and 0.3342 and 1.248 and -0.5329 and 0.3 and -1.04 and 0.4834 | β-arrestin2 recruitment response, agonist mode (normalized) (5HT1A; Log[Drug] -11.52): -0.8271 and 2.483 and -0.08669 and -0.3213 and -0.5138 and 3.162 and -0.4376 and 0.6466 and -0.1376 and 0.477 and 1.383 and 1.636 | β-arrestin2 recruitment response, agonist mode (normalized) (5HT1A; Log[Drug] -12): -0.1546 and 0.0408 and 0.03825 and -0.07649 and -0.33 and -0.5096 and -0.8188 and 0.4787 and -0.4787 and 6.658 and -0.3041 and 1.905 | response, single replicates of the concentration-response curve ([1]; Log[Drug] -6.52): 12.0291 and 19.5952 | response, single replicates of the concentration-response curve ([1]; Log[Drug] -7): 2.6011 and -1.075 and 3.048 and 4.334 and 32.5585 and -0.4363 and 18.2842 and -0.3304 and 3.805 | response, single replicates of the concentration-response curve ([1]; Log[Drug] -7.52): -5.305 and -8.997 and -2.862 and 15.7285 and -12.0664 and -2.954 and 4.129 and -0.7381 and 8.911 | response, single replicates of the concentration-response curve ([1]; Log[Drug] -8): 11.8117 and 29.1299 and 15.6343 and 0.03576 and -18.7755 and 4.449 and 0.1518 and -2.004 and 0.1399 | response, single replicates of the concentration-response curve ([1]; Log[Drug] -8.52): 12.7881 and -3.85 and 7.621 and -15.471 and -6.659 and -3.791 and 12.564 and 15.564 and 7.72 | response, single replicates of the concentration-response curve ([1]; Log[Drug] -9): 21.6587 and -10.519 and 17.1443 and 3.469 and -2.646 and 17.2305 and 22.0208 and 9.871 and -3.368 | response, single replicates of the concentration-response curve ([1]; Log[Drug] -9.52): -18.3856 and 11.0725 and -0.8301 and -0.6294 and 19.1689 and -9.835 and 1.3631 and 4.138 and -4.946 | response, single replicates of the concentration-response curve ([1]; Log[Drug] -10): 3.467 and 11.9303 and -16.5277 and -15.8143 and 26.0782 and 5.9867 and -1.32 and 21.2827 and -2.198 | response, single replicates of the concentration-response curve ([1]; Log[Drug] -10.52): -7.491 and 8.349 and -14.563 and -13.4182 and -6.602 and -12.1379 and 3.417 and 10.9077 and 6.354 | response, single replicates of the concentration-response curve ([1]; Log[Drug] -11): 29.0865 and 1.862 and -7.017 and 5.1 and 20.1702 and -18.3463 and 23.1562 and 16.2753 and 2.497 | response, single replicates of the concentration-response curve ([1]; Log[Drug] -11.52): -9.416 and 4.206 and 8.815 and -3.0613 and -4.084 and 8.812 and 2.924 and 7.927 and -1.673 | response, single replicates of the concentration-response curve ([1]; Log[Drug] -12): 14.8397 and -1.032 and -13.808 and 8.962 and 3.855 and 6.222 and -0.3036 and -4.71
